# Laboratory results published in PubChem BioAssay (NCI).
#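 Five concentrations, 48 hours, 96-well plates. GI50: concentration for 50% inhibition of growth. The concentration for full growth arrest is given as TGI.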 Where a SMILES comes first, the peptide text is derived from it. Bridges are numbered along the chain shown (N, C = ends). Roman numbers before positions name the chains, in order. [ ]: non-standard residue; d: D form. The star is where a group is joined. Quinoxaline2carbonyl = O=C(c1cnc2ccccc2n1)*; NMeV = CN[CH](C(=O)O)C(C)C; NMeC = CN[CH](CS)C(=O)O
# What was measured:
# Assay in all cases: growth of human tumour cells (NCI), 48 h
# [1] = system: 786-0 renal
# [2] = system: COLO 205 colon
# [3] = system: HT29 colon
# [4] = system: KM12 colon
# [5] = system: OVCAR-5 ovarian
# [6] = system: OVCAR-8 ovarian
# [7] = system: RPMI-8226 leukemia
# [8] = system: UACC-257 melanoma
# [9] = system: UACC-62 melanoma
# [10] = system: DU-145 prostate
Compound,TGI [1] [µM],TGI [2] [µM],TGI [3] [µM],TGI [4] [µM],TGI [5] [µM],TGI [6] [µM],TGI [7] [µM],TGI [8] [µM],TGI [9] [µM],GI50 [1] [µM],GI50 [2] [µM],GI50 [10] [µM],TGI [10] [µM],GI50 [4] [µM],GI50 [5] [µM],GI50 [6] [µM],GI50 [7] [µM],GI50 [8] [µM],GI50 [9] [µM],GI50 [3] [µM]
COC(CN1C=C(Sc2ccccc2)CC1)OC,> 100,47.4,54.2,67.8,> 100,86.9,50.7,98.1,> 100,,,,,,,,,,,
C/C=C(\C)c1cc(O)c(C)c2c1Oc1cc(O)c(Cl)c(C)c1C(=O)O2,49.2,49.3,34.7,47.6,30.2,45.9,,44.2,,,,,,,,,,,,
c1ccc(P(=Nc2ccccc2N=P(c2ccccc2)(c2ccccc2)c2ccccc2)(c2ccccc2)c2ccccc2)cc1,11.3,3.04,11.6,12.8,7.53,12.2,12.6,12.5,11.7,,,,,,,,,,,
COc1ccc(C(Cl)=C(c2ccc(OCCN(C)C)cc2)c2ccc(OCCN(C)C)cc2)cc1,2.53,2.94,3,2.83,3.3,4.06,3.83,,3.16,,,,,,,,,,,
CN(C)c1ccc(/C=C2\C=Cc3ccccc32)cc1,> 100,> 100,> 100,> 100,> 100,> 100,> 100,,> 100,,,,,,,,,,,
Cc1ccc(S(=O)OC2C3CC4CC(C3)CC2C4)cc1 (stereo unspecified),> 100,> 100,> 100,> 100,> 100,> 100,> 100,> 100,> 100,,,,,,,,,,,
Cc1cc2c(c(C(=O)O)c1C)-c1cccc(F)c1C2=O,> 100,> 100,> 100,> 100,> 100,> 100,> 100,> 100,> 100,,,,,,,,,,,
Cn1c2ccccc2n2c(=O)c3c(c(C#N)c12)CCCC3,> 100,> 100,> 100,> 100,> 100,> 100,> 100,> 100,,,,,,,,,,,,
C[C@@H]1O[C@@H](OC[C@H]2O[C@@H](OCCc3ccc(O)c(O)c3)[C@H](O)[C@@H](O)[C@@H]2OC(=O)/C=C/c2ccc(O)c(O)c2)[C@H](O)[C@H](O)[C@H]1O,> 100,> 100,,> 100,> 100,> 100,50.9,> 100,> 100,> 100,> 100,36.8,> 100,> 100,> 100,> 100,12.2,> 100,> 100,
COc1ccc2c(c1OC)C(=O)OC2C1c2c(c([N+](=O)[O-])c3c(c2OC)OCO3)CCN1C (stereo unspecified),> 100,> 100,> 100,> 100,> 100,> 100,,> 100,> 100,> 100,66.6,> 100,> 100,> 100,> 100,> 100,,> 100,> 100,28.7
CCCCCCCCCCCCCP(=O)(O)NCC(N)=O,> 100,> 100,> 100,> 100,> 100,> 100,> 100,> 100,> 100,,,,,,,,,,,
Fc1cccc(C2SCc3nc4ccccc4n32)c1F (stereo unspecified),> 100,> 100,> 100,> 100,> 100,> 100,> 100,> 100,> 100,,,,,,,,,,,
O=P1(Oc2ccccc2)C(c2ccccc2)C(c2ccccc2)=NN1c1ccccc1 (stereo unspecified),> 100,36.4,33,64.4,50.2,> 100,,75.8,35.3,,,,,,,,,,,
CC(C)c1c2[nH]c3ccccc3c2c(C(C)C)c2[nH]c3ccccc3c12,> 100,> 100,> 100,> 100,> 100,> 100,> 100,> 100,> 100,,,,,,,,,,,
CCO/C=C1\N=C(c2ccccc2Br)OC1=O,> 100,> 100,> 100,,> 100,> 100,> 100,> 100,> 100,,,,,,,,,,,
CN1CCN(CC(O)COc2c(Br)c(Br)c(Br)c3c2OC(C)(C)C3)CC1 (stereo unspecified),14.6,,4.54,43.2,43.7,42.2,4.44,,3.29,3.08,,11.8,24.5,6.06,17.7,10.3,1.8,,1.83,2.16
CN(C)CCC(/C=C/c1ccccc1)=N\Nc1ccc(Cl)cc1Cl,26.1,28.1,27.2,29.7,28.8,30.3,30.1,27,21.4,,,,,,,,,,,
"CC1NC(=O)C(NC(=O)c2cnc3ccccc3n2)COC(=O)C(C(C)C)N(C)C(=O)C2CSSCC(C(=O)N(C)C(C(C)C)C(=O)OCC(NC(=O)c3cnc4ccccc4n3)C(=O)NC(C)C(=O)N2C)N(C)C1=O (stereo unspecified) (I: Quinoxaline2carbonyl-SA[NMeC][NMeV] / II: Quinoxaline2carbonyl-SA[NMeC][NMeV]; ester I:1-II:C, I:C-II:1; disulfide I:3-II:3; configuration not given here)",2.27,,,3.17,> 4.64,< 0.215,< 0.01,0.0162,< 0.01,,,,,,,,,,,
CC(C)(C)CN1CCn2c(nc3c(N)nccc32)S1,> 100,16.3,,17.1,42,> 100,> 100,79.1,88.5,21,4.02,4.46,> 100,4.23,12.9,6.27,36.1,19.7,13.7,

Compound,TGI [1] [µM],TGI [2] [µM],TGI [3] [µM],TGI [4] [µM],TGI [5] [µM],TGI [6] [µM],TGI [7] [µM],TGI [8] [µM],TGI [9] [µM],GI50 [1] [µM],GI50 [2] [µM],GI50 [10] [µM],TGI [10] [µM],GI50 [4] [µM],GI50 [5] [µM],GI50 [6] [µM],GI50 [7] [µM],GI50 [8] [µM],GI50 [9] [µM],GI50 [3] [µM]
Cc1cc(N(CCC#N)CCC#N)ccc1/C=C1/N=C(c2ccccc2)N(N)C1=O,> 100,> 100,> 100,> 100,> 100,> 100,> 100,> 100,> 100,,,,,,,,,,,
CC1(C)C2CCC13CS(=O)(=O)N1O[C@]13C(=O)O2 (stereo partly specified),> 100,> 100,> 100,> 100,> 100,> 100,> 100,> 100,,,,,,,,,,,,
COc1cc2nc(NCCCCCNC(=O)c3ccco3)nc(N)c2cc1OC,49,38.2,> 100,62.4,> 100,> 100,> 100,38.1,52.6,,,,,,,,,,,
CC1CN1c1c(C(=O)/C=C/c2ccccc2)c(-c2ccccc2)nn(C)c1=O (stereo unspecified),30.6,29.7,29.4,44.2,37,41,,36.4,36.6,,,,,,,,,,,
CCC1(O)C(=O)OCc2c1cc1n(c2=O)Cc2cc3cc(N)ccc3nc2-1 (stereo unspecified),0.0469,7.25,,,2.94,4.45,4.94,1.89,0.251,,,,< 0.01,,,,,,,
CN1COc2c(n(C)c(=O)[nH]c2=O)C1,> 100,> 100,> 100,> 100,> 100,> 100,90.8,> 100,> 100,,,,,,,,,,,
CCOC1=C2N=C(Cc3ccccc3F)N=C2C(=O)c2ccccc21,> 100,> 100,> 100,> 100,,> 100,> 100,> 100,> 100,,,,,,,,,,,
CNS(=O)(=O)NNS(=O)(=O)c1ccc(Cl)cc1,> 100,> 100,> 100,> 100,> 100,> 100,> 100,> 100,> 100,,,,,,,,,,,
CN1CCN(Cc2ccc(NC(=O)c3[nH]ncc3Nc3ncnc4sc5c(c34)CCCC5)cc2)CC1,1.9,,1.92,1.29,1.73,2.52,1.04,3.29,1.93,0.365,,,,0.222,0.383,0.413,0.37,1.21,0.55,0.234
COc1ccc(C=O)c(NC(=O)C(C)C)c1,> 100,34.1,> 100,> 10,> 100,> 100,66.3,> 100,> 100,,,,,,,,,,,
CCCCn1c(=O)c2c(nc3n2CCCN3CCc2ccc(OCC(=O)NCCN(CC)CC)cc2)n(CCCC)c1=O,2,7.38,6.4,13.5,18,26.4,2.9,2.16,,0.912,1.78,4.56,35.3,6.49,7.58,7.1,1.13,1.02,,1.91
CCCCCCN(N)C(=O)CC#N,> 100,> 100,> 100,> 100,> 100,> 100,58.5,> 100,> 100,,,,,,,,,,,
N#Cc1ccc(N=Cc2c([O-])ccc3ccccc23)cc1.[C-]#[O+].[C-]#[O+].[Ir],28,4,42.3,30.2,36.5,28,25.1,29,24.6,14.3,1.96,,,16.6,21.7,6.03,5,10.6,12.2,17.6
CCOC(=O)C(=O)Nc1cc(Cl)ccc1Cl,> 100,> 100,> 100,> 100,> 100,> 100,> 100,> 100,> 100,,,,,,,,,,,
COc1ccc(C(=O)N2c3ccccc3Sc3ccccc32)c(OC)c1,> 100,,> 100,> 100,> 100,> 100,29.9,> 100,> 100,0.48,,0.491,> 100,0.438,10,0.749,0.523,27.8,0.321,0.385
O=[N+]([O-])c1cc(S(=O)(=O)Oc2ccccc2)ccc1Cl,15.5,14.4,,2.89,5.17,19.7,8.29,3.1,13.5,4.65,3.85,1.83,3.24,1.47,2.29,5.15,3.33,1.6,3.55,
O=C([CH-]C(=O)c1ccccc1)c1ccccc1.O=C([CH-]C(=O)c1ccccc1)c1ccccc1.[OH-].[OH-].[Ti+4],> 100,> 100,> 100,> 100,> 100,> 100,> 100,> 100,> 100,47.1,> 100,,,> 100,> 100,55,41.3,> 100,66.5,> 100
O=C(NC1CCCC1=O)c1ccccc1 (stereo unspecified),> 100,,> 100,> 100,> 100,> 100,,> 100,> 100,,,,,,,,,,,
C=C1CCC2[C@@H](CCC3[C@]2(C)CCC[C@]3(C)C(=O)OC)[C@@H]1CC=O (stereo partly specified),> 100,> 100,81,> 100,> 100,49.2,57.6,68.9,64.5,,,,,39.3,50.8,,19.1,,,
